Test results as given in patent US11365192B2, “Pyridine compound substituted with azole” (TAISHO PHARMACEUTICAL CO., LTD., priority 2017, dated 2022).

Experiments:
[1] = biological target: human CYP4A11 (Homo sapiens (Human), UniProt Q02928); assay: Inhibition test against 20-HETE producing enzyme CYP4A11 (luciferine derivative, luminescence); assay type: biochemical; conditions: human CYP4A11, luciferine derivative, luminescence
Summary of the method: (§1)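 IC50 derived from luminescence after 60 min at room temperature with membrane fractions of E. coli expressing each human CYP (100 μg/mL protein). For CYP4A11, 60 μM luciferin derivative in 100 mM Tris-HCl pH 7.5 with NADPH-regenerating system; for CYP4F2, 2.5 μM substrate, 1 mM NADPH, 50 mM KPO4 pH 7.4.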

[2] = biological target: human CYP4F2 (Homo sapiens (Human), UniProt P78329); assay: Inhibition test against 20-HETE producing enzyme CYP4F2 (luciferine derivative, luminescence); assay type: biochemical; conditions: human CYP4F2, luciferine derivative, luminescence
Summary of the method: as §1

Sequence of human CYP4A11 (Q02928 5-519): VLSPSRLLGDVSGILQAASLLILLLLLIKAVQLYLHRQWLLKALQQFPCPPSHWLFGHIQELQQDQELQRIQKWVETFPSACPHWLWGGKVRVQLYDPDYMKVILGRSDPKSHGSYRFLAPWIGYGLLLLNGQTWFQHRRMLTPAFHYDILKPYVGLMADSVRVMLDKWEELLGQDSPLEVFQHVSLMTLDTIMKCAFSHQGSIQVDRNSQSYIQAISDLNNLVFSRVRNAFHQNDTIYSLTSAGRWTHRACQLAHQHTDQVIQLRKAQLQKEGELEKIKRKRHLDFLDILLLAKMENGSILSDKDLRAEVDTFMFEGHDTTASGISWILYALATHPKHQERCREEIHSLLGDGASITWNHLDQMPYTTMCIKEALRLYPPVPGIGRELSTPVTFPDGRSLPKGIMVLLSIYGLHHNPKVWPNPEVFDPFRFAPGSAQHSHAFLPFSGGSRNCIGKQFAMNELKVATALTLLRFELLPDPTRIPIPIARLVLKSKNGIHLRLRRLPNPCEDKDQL
Sequence of human CYP4F2 (P78329 5-520): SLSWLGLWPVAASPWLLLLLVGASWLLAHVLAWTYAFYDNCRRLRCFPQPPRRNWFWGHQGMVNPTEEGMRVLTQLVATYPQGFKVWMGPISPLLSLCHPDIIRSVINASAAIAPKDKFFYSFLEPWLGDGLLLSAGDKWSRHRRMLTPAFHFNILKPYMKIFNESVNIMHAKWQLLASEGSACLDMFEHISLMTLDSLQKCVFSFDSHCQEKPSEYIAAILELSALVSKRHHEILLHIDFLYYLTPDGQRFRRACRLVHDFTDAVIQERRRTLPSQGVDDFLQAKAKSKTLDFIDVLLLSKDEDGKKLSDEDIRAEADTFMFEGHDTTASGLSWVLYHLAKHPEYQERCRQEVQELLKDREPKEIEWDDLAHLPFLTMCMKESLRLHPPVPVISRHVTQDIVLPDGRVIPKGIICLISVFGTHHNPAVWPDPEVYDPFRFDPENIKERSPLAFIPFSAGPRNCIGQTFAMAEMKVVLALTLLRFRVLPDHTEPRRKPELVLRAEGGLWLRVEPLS

| SMILES | IC50 [1] [nM] | IC50 [2] [nM] |
| --- | --- | --- |
| O=C(O)c1ccc(CCCCCOc2ccc(-c3ccn[nH]3)nc2)cn1 [Example 71-29] | 110 | 260 |
| CC(C)(Oc1ccc(CCOc2ccc(-c3ccn[nH]3)nc2)cc1)C(=O)O [Example 71-30] | 1900 | 11000 |
| CC(C)(Oc1cccc(CCOc2ccc(-c3ccn[nH]3)nc2)c1)C(=O)O [Example 71-31] | 300 | 15000 |
| CC(C)(Oc1ccc(CCOc2ccc(-c3ccn[nH]3)nc2)cn1)C(=O)O [Example 71-32] | 6200 | 23000 |
| CC(C)(COc1ccc(CCOc2ccc(-c3ccn[nH]3)nc2)cn1)C(=O)O [Example 71-33] | 1600 | 600 |
| CC(C)(Oc1cc(CCOc2ccc(-c3ccn[nH]3)nc2)ccn1)C(=O)O [Example 71-34] | 1100 | 36000 |
| CC(C)(COc1cc(CCOc2ccc(-c3ccn[nH]3)nc2)ccn1)C(=O)O [Example 71-35] | 1400 | 1900 |
| CC(C)(Oc1cccc(CCOc2ccc(-c3ccn[nH]3)nc2)n1)C(=O)O [Example 71-36] | 260 | > 50000 |
| CC(C)(COc1cccc(CCOc2ccc(-c3ccn[nH]3)nc2)n1)C(=O)O [Example 71-37] | 160 | 3500 |
| CC(C)(Oc1ccc(CCCOc2ccc(-c3ccn[nH]3)nc2)cn1)C(=O)O [Example 71-38] | 1400 | 1900 |
| CC(C)(COc1ccc(CCCOc2ccc(-c3ccn[nH]3)nc2)cn1)C(=O)O [Example 71-39] | 780 | 51 |
| CC(C)(Oc1cccc(CCCOc2ccc(-c3ccn[nH]3)nc2)n1)C(=O)O [Example 71-40] | 450 | 8700 |
| CC(C)(COc1cccc(CCCOc2ccc(-c3ccn[nH]3)nc2)n1)C(=O)O [Example 71-41] | 160 | 660 |
| CC(C)(Oc1cc(CCCOc2ccc(-c3ccn[nH]3)nc2)ccn1)C(=O)O [Example 71-42] | 630 | 2100 |
| CC(C)(COc1cc(CCCOc2ccc(-c3ccn[nH]3)nc2)ccn1)C(=O)O [Example 71-43] | 870 | 250 |
| CC(=O)N1CC(CCCCCCCCOc2ccc(-c3ccn[nH]3)nc2)(C(=O)O)C1 [Example 71-44] | 1000 | 37 |

| SMILES | IC50 [1] [nM] | IC50 [2] [nM] |
| --- | --- | --- |
| CC(C)(OCCCCCCCCOc1ccc(-c2ccn[nH]2)nc1)C(=O)O [Example 72-1] | 450 | 54 |
| O=C(O)C1(CCCCCCCCOc2ccc(-c3ccn[nH]3)nc2)CCOC1 (stereo not shown) [Example 72-4] | 150 | 14 |
| O=C(O)C1(CCCCCCCCOc2ccc(-c3ccn[nH]3)nc2)CCCO1 (stereo not shown) [Example 72-5] | 260 | 43 |
| O=C(O)C1(CCCCCCCCOc2ccc(-c3ccn[nH]3)nc2)CCS(=O)(=O)CC1 [Example 72-6] | 270 | 9.4 |
| O=C(O)C1(Cc2cccc(COc3ccc(-c4ccn[nH]4)nc3)c2F)CC1 [Example 72-7] | 14 | 15000 |
| O=C(O)C1(Cc2cccc(CCOc3ccc(-c4ccn[nH]4)nc3)c2F)CC1 [Example 72-8] | 15 | 1700 |
| CC(=O)N1CCC(CCCCCCCCOc2ccc(-c3ccn[nH]3)nc2)(C(=O)O)C1 (stereo not shown) [Example 72-9] | 230 | 18 |
| O=C(O)C1(Cc2ccc(CCOc3ccc(-c4ccn[nH]4)nc3)cc2)CC1 [Example 74-1] | 130 | 1100 |
| O=C(O)C1CC1c1cccc(CCOc2ccc(-c3ccn[nH]3)nc2)c1F (stereo not shown) [Example 74-3] | 88 | 60 |
| O=C(O)C1CC1c1ccc(F)c(CCOc2ccc(-c3ccn[nH]3)nc2)c1 (stereo not shown) [Example 74-6] | 35 | 16000 |
| O=C(O)C1CC1c1cc(F)cc(CCOc2ccc(-c3ccn[nH]3)nc2)c1 (stereo not shown) [Example 74-9] | 47 | 19000 |
| O=C(O)C1(Cc2ccc(CCOc3ccc(-c4ccn[nH]4)nc3)cc2)COC1 [Example 74-12, 3-[[4-[2-[6-(1H-Pyrazol-5-yl)pyridin-3-yl]oxyethyl]phenyl]methyl]oxetane-3-carboxylic Acid] | 510 | 13000 |
| CC(C)(NS(=O)(=O)c1cccc(COc2ccc(-c3ccn[nH]3)nc2)c1)C(=O)O [Example 75-1] | 21 | 9300 |
| CN(CC(C)(C)C(=O)O)S(=O)(=O)c1cccc(COc2ccc(-c3ccn[nH]3)nc2)c1 [Example 75-2] | 38 | 130 |
| CC(C)(CNS(=O)(=O)c1cccc(COc2ccc(-c3ccn[nH]3)nc2)c1)C(=O)O [Example 75-3] | 36 | 490 |
| CN(C(C)(C)C(=O)O)S(=O)(=O)c1cccc(COc2ccc(-c3ccn[nH]3)nc2)c1 [Example 75-4] | 43 | 29000 |
